This note sets out measurements from PubChem BioAssay (NCI).

Molecules are shown by their SMILES.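 The compound was tested at five concentrations on cells cultured in 96-well plates, with a 48-hour exposure period. Here, GI50 denotes the concentration required for 50% inhibition of growth. Definition used: TGI = concentration required for complete inhibition of growth.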

Experiment in all cases: growth of human tumour cells (NCI), 48 h
The subject of test [1] is UACC-257 melanoma.
The subject of test [2] is MALME-3M melanoma.
The subject of test [3] is OVCAR-4 ovarian.
Test [4] relates to COLO 205 colon.
Test [5] has as its system OVCAR-8 ovarian.
The test system of test [6] is ACHN renal.
Test [7] deals with UACC-62 melanoma.
Test [8] deals with IGROV1 ovarian.
In test [9] the test system is HOP-62 NSCLC.

`Fc1ccccc1C1CC(c2ccc3ccccc3c2)=Nc2ccccc2S1` (stereo unspecified): the TGI in [1], in [2], in test [3], in test [4], in test [5] and in test [6] was over 100 µM throughout. Also, the TGI in test [7], in test [8] and in [9] was over 100 µM in each case.

As to `O=[N+]([O-])c1cccc(-c2oc(C=Nc3ccccc3)c([N+](=O)[O-])c2-c2cccc([N+](=O)[O-])c2)c1`, the TGI in [1], in [2], in test [4], in test [5], in test [6] and in test [7] was over 100 µM each time. For the same molecule, the TGI in test [8] and in [9] was over 100 µM each time.

For the molecule `C[C@]1(CO)CCC[C@@]2(C)C1CC[C@H]1CC3C[C@]12CC[C@]3(C)O` (stereo partly specified), the TGI in [1], in test [2], in test [3], in [4], in test [5] and in test [6] was over 100 µM in each case. For the same molecule, the TGI in test [7] and in test [9] was over 100 µM throughout.

With `C=C(Br)N(CC)CC`, the TGI in [1], in test [2], in [3], in test [4], in [5] and in test [6] was over 100 µM throughout. Moreover, the TGI in [7], in [8] and in test [9] was over 100 µM in each case.

For the molecule `COC1OC(COCc2ccc(Cl)cc2)C(OCc2ccc(Cl)cc2)C1N=[N+]=[N-]` (stereo unspecified), the TGI in test [1], in [2], in test [3], in [4], in test [5] and in test [6] was over 100 µM in each case. Moreover, the values for the TGI in [7] and in test [8] were 75.7 µM and over 100 µM, respectively.

For the molecule `C1=CC=C2NCCCNC3=CC=CC=CC3=NCCCN=C2C=C1`, the TGI in test [3], in [4], in test [5], in [6], in test [7] and in test [8] was over 100 µM in each case. This molecule also gave a TGI in test [9] of over 100 µM.

With `CN(C)CCNC(=O)c1cccc2c1nc(-c1ccccc1)c1ccccc12`, the TGI in [1] stood at 3.48 µM; in [3], 17.7 µM; in test [4] it was 15.3 µM; in test [5], 19.6 µM; in [6], 13.4 µM; in test [7], 24.4 µM. Also, the TGI came out at 18.2 µM in test [8] and 18.5 µM in [9].

Turning to `O=C(Cc1nc2ccccc2s1)Nc1cccc(C(F)(F)F)c1`, the TGI is 28.7 µM in [1]; 30.8 µM in [2]; 30.3 µM in test [3]; 30.7 µM in test [4]; 38.1 µM in test [5]; 28.2 µM in [6]. The TGI in test [7] stood at 25.4 µM; in test [8] it was 25.9 µM; in test [9] it was 32.7 µM.

For `CC1C[C@@H]2C(=O)NC(=O)[C@@H]2c2c1c1ccccc1n2C` (stereo partly specified), the TGI in [1], in [2], in test [4], in test [5], in test [7] and in test [8] was over 100 µM in each case. In test [9], the TGI is over 100 µM.

`CCc1cccc(C(C)C)c1NC(=O)C(=O)C(CC(=O)Nc1ccc(Cl)c(Cl)c1)C(=O)OC` (stereo unspecified): the TGI in test [1], in test [2], in test [3], in [4], in [5] and in test [6] was over 100 µM each time. Also, the TGI was 6.77 µM in test [7], over 100 µM in test [8] and over 100 µM in test [9].

For the molecule `COCCCNC(=O)CC(=O)NCCCOC`, the TGI in [1], in test [2], in test [3], in [4], in test [5] and in test [6] was over 100 µM throughout. Further, the TGI in [7], in test [8] and in test [9] was over 100 µM throughout.

As for `C=C1CCC2C(C)(C)CCC[C@]2(C)[C@H]1CO` (stereo partly specified), the GI50 in test [1] was over 100 µM; in [4], 42.1 µM; in test [5], 76.1 µM; in test [6] it was 97.9 µM; in [7], over 100 µM; in test [8], over 100 µM. In addition, the GI50 in test [9] is over 100 µM. Further, the TGI in [1], in test [4], in test [5], in test [6], in test [7] and in [8] was over 100 µM in each case. Also, in [9], the TGI was over 100 µM.

Consider `CS(=O)(=O)N(N(CCCl)S(=O)(=O)c1ccccc1)S(C)(=O)=O`, for which the TGI in test [1], in test [2], in [3], in test [4], in test [5] and in test [6] was over 100 µM throughout. Moreover, the TGI in test [7] and in test [9] was over 100 µM in each case.

In the case of `S=c1cc(S)sc2c1c(=S)sc1nc3ccccn3c(=S)c12`, the TGI in test [2], in [3], in test [5], in [6] and in test [7] was over 100 µM each time.

In the case of `O=C(CCC(=O)C(C(=O)c1ccccc1)c1ccccc1)Nc1cccc(C(F)(F)F)c1` (stereo unspecified), the TGI in test [1], in [2], in test [3], in test [4], in test [5] and in test [6] was over 100 µM in each case. The TGI in test [7] and in test [8] was over 100 µM each time.
